Reference: patent US20170334899A1, “AMINO-SUBSTITUTED ISOTHIAZOLES” (Bayer Pharma Aktiengesellschaft, priority 2014, published 2017)

Target: T1, catalytic domain of human Bub1 (amino acids 704-1085) (Homo sapiens, UniProt O43683)
T1 construct: catalytic domain of human Bub1 (amino acids 704-1085); His6 (N); made in house; host or cells: insect cells (Hi5)
Assay: Bub1 kinase assay (TR-FRET)
Assay type: biochemical
Conditions: 10 μM ATP, avg, read-out: Bub1 avg (IC50 [mol/l])
Procedure, shortened: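 Readout is the 665/620 nm TR-FRET ratio from anti-phosphoserine antibody, Eu-labelled anti-mouse IgG and streptavidin-XL665, scaled between no-enzyme and uninhibited controls. Reaction: 1 μM biotinylated peptide, 10 μM ATP, 60 min, 22 °C, after 15 min compound preincubation with His6-Bub1 (704-1085, insect-expressed, ~200 ng/ml).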

T1 sequence (O43683 704-1085): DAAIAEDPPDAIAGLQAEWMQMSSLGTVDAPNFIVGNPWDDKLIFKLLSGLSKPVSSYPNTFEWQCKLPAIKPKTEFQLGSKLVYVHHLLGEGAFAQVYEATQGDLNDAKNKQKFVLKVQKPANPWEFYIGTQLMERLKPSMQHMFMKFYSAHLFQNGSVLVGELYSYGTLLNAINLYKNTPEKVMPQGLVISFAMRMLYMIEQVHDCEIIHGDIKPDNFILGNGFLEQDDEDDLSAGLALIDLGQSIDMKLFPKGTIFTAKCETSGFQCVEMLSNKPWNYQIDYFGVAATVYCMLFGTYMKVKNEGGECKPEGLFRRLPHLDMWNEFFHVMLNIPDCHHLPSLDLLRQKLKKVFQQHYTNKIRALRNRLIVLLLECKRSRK

| SMILES | IC50 [µM] |
| --- | --- |
| Cc1nsc(Nc2cnc(C(F)(F)F)cn2)c1C(=O)Nc1ccc(OCCN(C)C(=O)OC(C)(C)C)nc1 [Example 429, tert-Butyl methyl{2-[(5-{[(3-methyl-5-{[5-(trifluoromethyl)pyrazin-2-yl]amino}-1,2-thiazol-4-yl)carbonyl]amino}pyridin-2-yl)oxy]ethyl}carbannate] | > 20 |
| Cc1nsc(Nc2cnccn2)c1C(=O)Nc1ccc(OCCCNC(=O)OC(C)(C)C)nc1 [Example 47, tert-Butyl (3-{[5-({[3-methyl-5-(pyrazin-2-ylamino)-1,2-thiazol-4-yl]carbonyl}-amino)pyridin-2-yl]oxy}propyl)carbamate] | ≥ 20 |
| Cc1nsc(Nc2cnc3ccccc3n2)c1C(=O)Nc1cccc(C(=O)N2CCOCC2)c1 [Example 52, 3-Methyl-N-[3-(morpholin-4-ylcarbonyl)phenyl]-5-(quinoxalin-2-ylamino)-1,2-thiazole-4-carboxamide] | 9 |
| Cc1nsc(Nc2ccc(C#N)cn2)c1C(=O)Nc1ccc(OC2CCCN(CC(F)F)C2)nc1 (stereo not shown) [Example 39, 5-[(5-Cyanopyridin-2-yl)amino]-N-(6-{[1-(2,2-difluoroethyl)piperidin-3-yl]oxy}-pyridin-3-yl)-3-methyl-1,2-thiazole-4-carboxamide] | ≥ 20 |
| Cc1nsc(Nc2cncc(C(F)(F)F)n2)c1C(=O)Nc1ccc(OCCN(C)C(=O)OC(C)(C)C)nc1 [Example 430, tert-Butyl methyl{2-[(5-{[(3-methyl-5-{[6-(trifluoromethyl)pyrazin-2-yl]amino}-1,2-thiazol-4-yl)carbonyl]amino}pyridin-2-yl)oxy]ethyl}carbannate] | > 20 |
| Cc1nsc(Nc2cnc3ccccc3n2)c1C(=O)Nc1ccc(NCCN(C)C(=O)OC(C)(C)C)nc1 [Example 434, tert-Butyl methyl(2-{[5-({[3-methyl-5-(quinoxalin-2-ylamino)-1,2-thiazol-4-yl]carbonyl}amino)pyridin-2-yl]amino}ethyl)carbamate] | > 20 |
| Cc1nsc(Nc2ccc(C#N)cn2)c1C(=O)Nc1ccc(OC2CCCNC2)nc1 (stereo not shown) [Example 37, 5-[(5-Cyanopyridin-2-yl)amino]-3-methyl-N-[6-(piperidin-3-yloxy)pyridin-3-yl]-1,2-thiazole-4-carboxamide] | ≥ 20 |
| Cc1nsc(Nc2ccc(C#N)cn2)c1C(=O)Nc1ccc(OC2CCCN(CCF)C2)nc1 (stereo not shown) [Example 38, 5-[(5-Cyanopyridin-2-yl)amino]-N-(6-{[1-(2-fluoroethyl)piperidin-3-yl]oxy}pyridin-3-yl)-3-methyl-1,2-thiazole-4-carboxamide] | ≥ 20 |
| Cc1nsc(Nc2cc(C#N)ccn2)c1C(=O)Nc1ccc(OCCCNCC(F)F)nc1 [Example 45, 5-[(4-Cyanopyridin-2-yl)amino]-N-(6-{3-[(2,2-difluoroethyl)amino]propoxy}pyridin-3-yl)-3-methyl-1,2-thiazole-4-carboxamide] | ≥ 20 |
| Cc1nsc(Nc2cnc3ccccc3n2)c1C(=O)Nc1cccc(NC(=O)C(F)(F)F)c1 [Example 432, 3-Methyl-5-(quinoxalin-2-ylamino)-N-{3-[(trifluoroacetyl)amino]phenyl}-1,2-thiazole-4-carboxamide] | > 20 |

The next lines start with the values.

| IC50 [µM] | SMILES |
| --- | --- |
| > 20 | Cc1nsc(Nc2cnc(C(F)(F)F)cn2)c1C(=O)Nc1ccc(F)c(OCC2CCN(CC(F)(F)F)C2)c1 (stereo not shown) [Example 318, N-(4-fluoro-3-{[1-(2,2,2-trifluoroethyl)pyrrolidin-3-yl]methoxy}phenyl)-3-methyl-5-{[5-(trifluoromethyl)pyrazin-2-yl]amino}-1,2-thiazole-4-carboxamide] |
| > 20 | Cc1nsc(Nc2cnc(C(F)(F)F)cn2)c1C(=O)Nc1ccc(F)c(O[C@H]2CCN(CC(F)(F)F)C2)c1 [Example 416, N-(4-Fluoro-3-{[(35)-1-(2,2,2-trifluoroethyl)pyrrolidin-3-yl]oxy}phenyl)-3-methyl-5-{[5-(trifluoromethyl)pyrazin-2-yl]amino}-1,2-thiazole-4-carboxamide] |
| > 20 | Cc1nsc(Nc2cnc(C(F)(F)F)cn2)c1C(=O)Nc1ccc(OCC2CCN(CC(F)F)CC2(F)F)nc1 (stereo not shown) [Example 401, N-(6-{[1-(2,2-difluoroethyl)-3,3-difluoropiperidin-4-yl]methoxy}pyridin-3-yl)-3-methyl-5-{[5-(trifluoromethyl)pyrazin-2-yl]amino}-1,2-thiazole-4-carboxamide] |
| > 20 | Cc1nsc(Nc2cnc(C(F)(F)F)cn2)c1C(=O)Nc1ccc(F)c(O[C@@H]2CCN(CCC(F)(F)F)C2)c1 [Example 414, N-(4-Fluoro-3-{[(3R)-1-(3,3,3-trifluoropropyl)pyrrolidin-3-yl]oxy}phenyl)-3-methyl-5-{[5-(trifluoromethyl)pyrazin-2-yl]amino}-1,2-thiazole-4-carboxamide] |
| > 20 | CCCN1C[C@H](F)[C@H](Oc2ccc(NC(=O)c3c(C)nsc3Nc3cnc(C(F)(F)F)cn3)cn2)C1 [Example 408, N-(6-{[(3R,4S)-4-Fluoro-1-propylpyrrolidin-3-yl]oxy}pyridin-3-yl)-3-methyl-5-{[5-(trifluoromethyl)pyrazin-2-yl]amino}-1,2-thiazole-4-carboxamide] |
| > 20 | CCN1CCC(Oc2ccc(NC(=O)c3c(C)nsc3Nc3cnc(C(F)(F)F)cn3)cn2)C(F)(F)C1 (stereo not shown) [Example 406, N-{6-[(1-Ethyl-3,3-difluoropiperidin-4-yl)oxy]pyridin-3-yl}-3-methyl-5-{[5-(trifluoromethyl)pyrazin-2-yl]amino}-1,2-thiazole-4-carboxamide] |
| > 20 | Cc1nsc(Nc2cnc(C(F)(F)F)cn2)c1C(=O)Nc1ccc(O[C@@H]2CN(CC(F)(F)F)C[C@@H]2F)nc1 [Example 410, N-(6-{[(3R,4S)-4-Fluoro-1-(2,2,2-trifluoroethyl)pyrrolidin-3-yl]oxy}pyridin-3-yl)-3-methyl-5-{[5-(trifluoromethyl)pyrazin-2-yl]amino}-1,2-thiazole-4-carboxamide] |
| > 20 | CCCN1CCC(COc2ccc(NC(=O)c3c(C)nsc3Nc3cnc(C(F)(F)F)cn3)cn2)C(F)(F)C1 (stereo not shown) [Example 394, N-{6-[(3,3-difluoro-1-propylpiperidin-4-yl)methoxy]pyridin-3-yl}-3-methyl-5-{[5-(trifluoromethyl)pyrazin-2-yl]amino}-1,2-thiazole-4-carboxamide] |
| ≥ 20 | Cc1nsc(Nc2cnc(C(F)(F)F)cn2)c1C(=O)Nc1ccc(OCCNC(=O)C(F)(F)F)nc1 [Example 425, 3-Methyl-N-(6-{2-[(trifluoroacetyl)amino]ethoxy}pyridin-3-yl)-5-{[5-(trifluoro-methyl)pyrazin-2-yl]amino}-1,2-thiazole-4-carboxamide] |
| ≥ 20 | Cc1nsc(Nc2cnc(C(F)(F)F)cn2)c1C(=O)Nc1ccc(F)c(OCCCNC(=O)C(F)(F)F)c1 [Example 427, N-(4-Fluoro-3-{3-[(trifluoroacetyl)amino]propoxy}phenyl)-3-methyl-5-{[5-(trifluoro-methyl)pyrazin-2-yl]amino}-1,2-thiazole-4-carboxamide] |
| ≥ 20 | Cc1nsc(Nc2cnc(C(F)(F)F)cn2)c1C(=O)Nc1ccc(OC2CCN(C(=O)OC(C)(C)C)CC2)nc1 [Example 5, tert-Butyl 4-[(5-{[(3-methyl-5-{[5-(trifluoromethyl)pyrazin-2-yl]amino}-1,2-thiazol-4-yl)carbonyl]amino}pyridin-2-yl)oxy]piperidine-1-carboxylate] |
| > 20 | Cc1nsc(Nc2cnc(C(F)(F)F)cn2)c1C(=O)Nc1ccc(F)c(OC[C@H]2CCCN(CC(F)(F)F)C2)c1 [Example 419, N-(4-Fluoro-3-{[(3S)-1-(2,2,2-trifluoroethyl)piperidin-3-yl]methoxy}phenyl)-3-methyl-5-{[5-(trifluoromethyl)pyrazin-2-yl]amino}-1,2-thiazole-4-carboxamide] |
